# Experimental data published in patent US6641840B2, “Sustained release formulations for growth hormone secretagogues” (Pfizer Inc., priority 2000, dated 2003).
# Like-named read-outs stand apart in the source and are kept apart here.
# Columns and labels:
# rat pituitary cells = experiment: Pituitary cell desensitization - growth hormone release assay; format: cell-based; conditions: for GH release: treatment 10 nM Compound A 15 min
# Procedure: The experiment was designed so that cultures were exposed to a growth hormone secretagogue for 60 min, then growth hormone release was measured during a subsequent 15 min exposure to the same or different growth hormone secretagogue.
# Anterior pituitary glands from male Wistar rats (150-175 g, Charles River, Laboratories, Wilmington, Mass.) were collected in Hank's Balanced Salt Solution (#14170, Life Technologies, Gaithersburg, Md.). Glands were minced with a scalpel, then incubated with bacterial protease (Type IX, EC3.4.24.4, #P-6141, Sigma Chemicals, Milwaukee, Wis.) at 10 U/ml to release individual cells. Cells were pelleted by centrifugation at 200×g for 15 min, then suspended in culture medium and plated at a density of 6.0-6.5×10^4 cells per 0.5 ml per well in 48-well tissue culture plates (#3848, Costar Corporation, Cambridge, Mass.). Culture medium consisted of D-MEM (Dulbecco's Modified Eagle Medium) with high glucose and sodium bicarbonate (#11965) supplemented with 10% heat-inactivated horse serum (#26050, Life Technologies, Gaithersburg, Md.), 2.5% fetal bovine serum (#16140, Life Technologies, Gaithersburg, Md.), 0.1 mM MEM non-essential amino acids (#11140, Life Technologies, Gaithersburg, Md.), 100 U/ml nystatin (#15340, Life Technologies, Gaithersburg, Md.) and 50 ug/ml gentamicin sulfate (#15750, Life Technologies, Gaithersburg, Md.). Cultures were maintained for 3-4 days in a humidified, 5% CO2/95% air incubator at 37° C. prior to performing assays for growth hormone release.
# For growth hormone release assays, cultures were pre-equilibrated at 37° C. in pre-warmed release medium for 1 h in the presence of a growth hormone secretagogue or excipient (Pretreatment). Release medium consisted of Phenol Red-free D-MEM without bicarbonate (#23800, Life Technologies, Gaithersburg, Md.) supplemented with 25 mM N-[2-hydroxyethyl]piperazine-N′-[2-ethanesulfonic acid] (HEPES), 4.5 g/L glucose, 0.11 g/L sodium pyruvate, 0.584 g/L […] and 0.5% bovine serum albumin (#A-7888, Sigma Chemicals, Milwaukee, Wis.), adjusted to pH 7.4. After pretreatment, the medium was removed and replaced with fresh pre-warmed release medium containing a growth hormone secretagogue or excipient at 0.5 ml/well for 15 min (Treatment). Medium from the Treatment was collected, centrifuged to remove any cells, then assayed for growth hormone content by a conventional double-antibody radioimmunoassay using monkey anti-growth hormone antisera (NIDDK anti-rGH-S-5) and reference rat growth hormone standard (NIDDK-rGH-RP) from Dr. A. F. Parlow, Harbor-UCLA Medical Center, Torrance, Calif. Immune complexes were precipitated using goat anti-monkey immunoglobulin G (#55418, Cappel, Durham, N.C.).
# Growth hormone secretagogue solutions were prepared at 1000 times the desired concentration and diluted into pre-warmed release medium immediately before use. Peptides such as His-D-Trp-Ala-Trp-Ala-Trp-D-Phe-Lys-NH2 (GHRP-6, #8061, Peninsula Laboratories, Belmont, Calif.) and rat growth hormone releasing factor (GHRH, #8068, Peninsula Laboratories, Belmont, Calif.) were dissolved at 100 μM in 4 mM acetic acid, 10% ethanol, 0.1% bovine serum albumin; other growth hormone secretagogues were dissolved at 5 mM in dimethyl sulfoxide.
# [1] = tested on: insulin-like growth factor binding protein 3 (IGFBP-3); experiment: Clinical study: IGFBP-3; format: in vivo, human; conditions: first leg, immediate release dosing
# Description: (§1) (All dosage forms in this part of the study were immediate release dosage forms.)
# (§2) The primary efficacy endpoint was the percentage change from baseline in IGF-1. Secondary outcomes included insulin-like growth factor binding protein 3 (IGFBP-3), cholesterol subfractions, and percent changes in total adipose and total lean tissue. Changes in each of the secondary efficacy measures over time were examined systematically either graphically or in tabular form and summarized using appropriate descriptive statistics as is well known in the art.
# [2] = Osmotic agent selection based on active compound solubility screening; format: physicochemical; conditions: 37 °C, aqueous with cosolvent or surfactant or cyclodextrin
# Procedure: The osmogens were screened by preparing a saturated solution (unless otherwise noted) of the candidate osmogen in water at 37° C. for 2 hours, and filtering the undissolved portion as described in Example 5.
# [3] = Clinical study: body composition (total adipose and total lean tissue); format: in vivo, human
# Procedure: as §1
# In addition, an extension study was conducted to evaluate the relationship between peak GH concentrations or IGF-I versus surrogate responses such as lipid concentrations and body composition. A sustained release (SR) formulation was also evaluated, either alone or combined with an immediate release (IR) formulation (24-30 patients per group). [16 mg (10 SR, 6 IR) h.s. (h.s. means at bedtime); 16 mg (10 SR, 6 IR) h.s. every third day; 16 mg SR h.s.; and placebo.] The formulations are set forth below.
# as §2
# [4] = first leg, immediate release dosing
smiles,measurement,setting,value
CN1N=C2CCN(C(=O)[C@@H](COCc3ccccc3)NC(=O)C(C)(C)N)C[C@@]2(Cc2ccccc2)C1=O.O=C(O)C(O)C(O)C(=O)O [Compound A],growth hormone release response,rat pituitary cells; after pretreatment with GHRH,stimulation of growth hormone release
same,growth hormone release response,rat pituitary cells; after pretreatment with GHRP-6,not
same,GH release,rat pituitary cells; pretreatment 100 nM GHRH 60 min,36.99 ± 2.43 ng/mL/15 min
same,GH release,rat pituitary cells; pretreatment 100 nM GHRP-6 60 min,7.64 ± 1.92 ng/mL/15 min
same,GH release,rat pituitary cells; pretreatment none,25.17 ± 4.32 ng/mL/15 min
same,IGFBP3,[1],increased
same,solubility at 5 min,"[2]; filtrate of osmogen solution in water, fructose solution 250 mg/ml (below saturation), read-out: COMPOUND A Solubility",< 50 mg/mL
same,solubility at 5 min,"[2]; filtrate of osmogen solution in water, visual screening, read-out: active compound solubility measured in this manner",> 150 mg/mL
same,solubility at 5 min,"[2]; filtrate of saturated lactose solution in water, saturated lactose solution, approx. 200 mg/ml, read-out: COMPOUND A Solubility",> 150 mg/mL
same,solubility at 5 min,"[2]; filtrate of saturated mannitol solution in water, saturated mannitol solution, approx. 180 mg/ml, read-out: COMPOUND A Solubility",> 150 mg/mL
same,solubility at 5 min,"[2]; filtrate of saturated sodium bitartrate solution in water, saturated sodium bitartrate solution, approx. 110 mg/ml, read-out: COMPOUND A Solubility",> 150 mg/mL
same,solubility at 5 min,"[2]; sorbitol solution in water, 250 mg/ml (below saturation), sorbitol solution 250 mg/ml (below saturation), read-out: COMPOUND A Solubility",> 150 mg/mL
same,solubility at 5 min,"[2]; xylitol solution in water, 250 mg/ml (below saturation), xylitol solution 250 mg/ml (below saturation), read-out: COMPOUND A Solubility",< 50 mg/mL
same,increases in lean tissue,"[3]; extension study, two groups receiving IR formulation",0.5-0.6%
same,adipose tissue (body composition),[3]; [4],decreased
same,apparent whole body lean mass,[3]; [4],increased
